PMC4929945, “Structural and functional analysis of the solute-binding protein UspC from Mycobacterium tuberculosis that is specific for amino sugars” (Open Biology, 2016)

Assays:
[1] = target: T1, UspC (Mtb-UspC, Rv2318), solute-binding protein of the UspABC transporter (Mycobacterium tuberculosis, UniProt P71894); assay: STD-NMR ([…] ligand, […] protein) and thermal shift
T1 construct: UspCNt, N-terminally truncated, residues 31–441, His6-tagged

[2] = target: T1, UspC (Mtb-UspC, Rv2318), solute-binding protein of the UspABC transporter; assay: thermal shift saturation binding (Kd,app), Tm shift […]°C at […]

T1 sequence (P71894 entry or part of it): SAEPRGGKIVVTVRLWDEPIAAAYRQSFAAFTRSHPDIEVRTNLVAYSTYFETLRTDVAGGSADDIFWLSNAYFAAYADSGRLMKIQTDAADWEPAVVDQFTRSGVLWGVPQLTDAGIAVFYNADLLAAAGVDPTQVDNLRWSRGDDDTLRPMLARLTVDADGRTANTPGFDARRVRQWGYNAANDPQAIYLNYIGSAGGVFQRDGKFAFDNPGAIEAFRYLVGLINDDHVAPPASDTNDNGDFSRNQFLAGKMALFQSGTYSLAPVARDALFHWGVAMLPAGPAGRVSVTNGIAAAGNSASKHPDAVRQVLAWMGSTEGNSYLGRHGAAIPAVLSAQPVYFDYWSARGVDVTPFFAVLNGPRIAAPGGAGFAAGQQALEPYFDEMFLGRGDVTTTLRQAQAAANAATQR

Compound	STD-NMR (50 mM ligand, 30 μM protein) and thermal shift [1]	Kd [2] [mM]
N[C@H]1C(O)O[C@H](CO)[C@@H](O)[C@@H]1O (stereo partly drawn) [D-glucosamine]	H2 (α and β) and H4 (α and β) of D-glucosamine interact non-covalently with Mtb-UspCNt	
N[C@H]1C(O)O[C@H](COP(=O)(O)O)[C@@H](O)[C@@H]1O (stereo partly drawn) [D-glucosamine-6-phosphate]		27.7 ± 6.4
